The molecules below were run on TCF4/β-catenin transcription (TOPFlash) in SW480 cells (assay: Reporter gene assay (TOPFlash luciferase)). Conditions: Homo sapiens, SW480, Table 4; Reporter gene assay as described in Example 6; read-out: IC50.
Assay type: cell-based
In short: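 SW480 cells transiently co-transfected with TOPFlash and pRL-null (4:1 µg) using Superfect, then reseeded at 3×10^4 cells/well and incubated overnight at 37 °C. Compound treatment lasted 24 h before luciferase read-out.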

| Compound | IC50 [nM] |
| --- | --- |
| C=CCN1CC(=O)N2[C@@H](Cc3ccc(O)cc3)C(=O)N([C@H](C)c3ccccc3)C[C@@H]2N1C(=O)NCc1ccccc1 [Compound 183] | 12800 ± 900 |
| C=CCN1CC(=O)N2[C@@H](CN([C@H](C)c3ccccc3)C(=O)[C@@H]2Cc2ccc(O)cc2)N1C(=O)NCc1ccccc1 [Compound 184] | 1200 ± 100 |
| C=CCN1CC(=O)N2[C@@H](Cc3ccc(O)cc3)C(=O)N([C@@H](C)c3ccc(Cl)c4cccnc34)C[C@@H]2N1C(=O)NCc1ccccc1 [Compound 185] | 23400 ± 1900 |
| C=CCN1CC(=O)N2[C@@H](Cc3ccc(O)c(F)c3)C(=O)N(Cc3ccc(F)cc3)C[C@@H]2N1C(=O)NCc1ccccc1 [Compound 186] | 3600 ± 300 |
| C=CCN1CC(=O)N2[C@@H](Cc3ccc(O)cc3)C(=O)N(Cc3ccc4c(c3)OCCO4)C[C@@H]2N1C(=O)NCc1ccccc1 [Compound 187] | 1100 ± 200 |
| C=CCN1CC(=O)N2[C@@H](CN([C@H](C)c3ccc(F)cc3F)C(=O)[C@@H]2Cc2ccc(O)cc2)N1C(=O)NCc1ccccc1 [Compound 188] | 4400 ± 200 |
| C=CCN1CC(=O)N2[C@@H](CN([C@H](C)c3ccc(Cl)c4cccnc34)C(=O)[C@@H]2Cc2ccc(O)cc2)N1C(=O)NCc1ccccc1 [Compound 189] | 8700 ± 400 |
| C=CCN1CC(=O)N2[C@@H](Cc3ccc(O)cc3)C(=O)N(Cc3cccc(NC)c3)C[C@@H]2N1C(=O)NCc1ccccc1 [Compound 193] | 2500 ± 500 |
| C=CCN1CC(=O)N2[C@@H](Cc3ccc(O)cc3)C(=O)N(Cc3cccc(N(C)C(=O)CCCCC)c3)C[C@@H]2N1C(=O)NCc1ccccc1 [Compound 194] | 3200 ± 400 |
| C[C@H](c1ccc(F)cc1F)N1CC2N(C(=O)CN(C)N2C(=O)NCc2ccccc2)[C@@H](Cc2ccc(O)cc2)C1=O (stereo partly shown) [Compound 195] | 22300 ± 2300 |
| C[C@@H](c1ccc(Cl)c2cccnc12)N1CC2N(C(=O)CN(C)N2C(=O)NCc2ccccc2)[C@@H](Cc2ccc(O)cc2)C1=O (stereo partly shown) [Compound 196] | 27400 ± 2800 |
| C=CCN1CC(=O)N2[C@@H](Cc3ccc(OP(=O)(O)O)cc3)C(=O)N(Cc3cccc4scnc34)C[C@@H]2N1C(=O)NCc1ccccc1 [Compound 197] | 700 ± 200 |
| C[C@H](c1ccc(Cl)c2cccnc12)N1CC2N(C(=O)CN(C)N2C(=O)NCc2ccccc2)[C@@H](Cc2ccc(O)cc2)C1=O (stereo partly shown) [Compound 198] | 5800 ± 300 |
| C=CCN1CC(=O)N2[C@@H](Cc3ccc(O)cc3)C(=O)N(Cc3cccc4cccnc34)C[C@@H]2N1C(=O)NCc1ccc(Cl)c(Cl)c1 [Compound 199] | 1000 ± 200 |
| CN1CC(=O)N2[C@@H](Cc3ccc(O)cc3)C(=O)N(Cc3ccc(F)cc3F)C[C@@H]2N1C(=O)NCc1ccc(F)cc1 [Compound 200] | 8600 ± 400 |
| CN1CC(=O)N2[C@@H](Cc3ccc(O)cc3)C(=O)N(Cc3ccc(F)cc3F)C[C@@H]2N1C(=O)NCc1ccc(Br)cc1 [Compound 201] | 5800 ± 400 |
| C=CCN1CC(=O)N2[C@@H](Cc3ccc(O)cc3)C(=O)N(Cc3cccc4c3OCO4)C[C@@H]2N1C(=O)NCc1ccccc1 [Compound 202] | 700 ± 100 |
| C=CCN1CC(=O)N2[C@@H](Cc3ccc(O)cc3)C(=O)N(Cc3cccc4c3OCCO4)C[C@@H]2N1C(=O)NCc1ccccc1 [Compound 203] | 700 ± 100 |
| C=CCN1CC(=O)N2[C@@H](Cc3ccc(O)cc3)C(=O)N(Cc3cccc4c3OCCO4)C[C@@H]2N1C(=O)NCc1ccc(Cl)c(Cl)c1 [Compound 204] | 1900 ± 100 |
| C=CCN1CC(=O)N2[C@@H](Cc3ccc(O)cc3)C(=O)N(Cc3cccc4c3OCC4)C[C@@H]2N1C(=O)NCc1ccccc1 [Compound 205] | 3500 ± 800 |

| Compound | IC50 [nM] |
| --- | --- |
| C=CCN1CC(=O)N2[C@@H](Cc3ccc(O)cc3)C(=O)N(Cc3cccc(OC(F)(F)F)c3)C[C@@H]2N1C(=O)NCc1ccccc1 [Compound 206] | 1300 ± 100 |
| C=CCN1CC(=O)N2[C@@H](Cc3ccc(O)cc3)C(=O)N(Cc3ccccc3)C[C@@H]2N1C(=O)NCc1ccc(Cl)c(Cl)c1 [Compound 207] | 1500 ± 100 |
| C=CCN1CC(=O)N2[C@@H](Cc3ccc(O)cc3)C(=O)N(Cc3ccc(OC)cc3)C[C@@H]2N1C(=O)NCc1ccccc1 [Compound 208] | 1600 ± 400 |
| C=CCN1CC(=O)N2[C@@H](Cc3ccc(OP(=O)(O)O)cc3)C(=O)N(Cc3ccc(OC)cc3)C[C@@H]2N1C(=O)NCc1ccccc1 [Compound 209] | 1900 ± 500 |
| C=CCN1CC(=O)N2[C@@H](Cc3ccc(O)cc3)C(=O)N(Cc3cccc4scnc34)C[C@@H]2N1C(=O)NCc1ccc(Cl)c(Cl)c1 [Compound 210] | 900 ± 100 |
| C=CCN1CCN2[C@@H](Cc3ccc(O)cc3)C(=O)N(Cc3ccc(OC(F)(F)F)cc3)C[C@@H]2N1C(=O)NCc1ccccc1 [Compound 211] | 2300 ± 200 |
| C=CCN1CC(=O)N2[C@@H](Cc3ccc(OP(=O)(O)O)cc3)C(=O)N(Cc3ccc4c(c3)OCCO4)C[C@@H]2N1C(=O)NCc1ccccc1 [Compound 212] | 1300 ± 300 |
| C=CCN1CCN2[C@@H](Cc3ccc(O)cc3)C(=O)N(Cc3ccc(OC)cc3OC)C[C@@H]2N1C(=O)NCc1ccccc1 [Compound 213] | 1700 ± 300 |
| C=CCN1CC(=O)N2[C@@H](Cc3ccc(O)cc3)C(=O)N(Cc3cccc(OC)c3OC)C[C@@H]2N1C(=O)NCc1ccccc1 [Compound 214] | 600 ± 200 |
| C=CCN1CC(=O)N2[C@@H](Cc3ccc(O)cc3)C(=O)N(Cc3ccc(OC)cc3)C[C@@H]2N1C(=O)NCc1ccc(Cl)c(Cl)c1 [Compound 215] | 18000 ± 5100 |
| C=CCN1CC(=O)N2[C@@H](Cc3ccc(O)c(F)c3)C(=O)N(Cc3cccc4scnc34)C[C@@H]2N1C(=O)NCc1ccccc1 [Compound 216] | 1600 ± 200 |
| C=CCN1CC(=O)N2[C@@H](Cc3ccc(O)cc3)C(=O)N(Cc3cccc4sc(Cl)nc34)C[C@@H]2N1C(=O)NCc1ccccc1 [Compound 217] | < 1600 |
| C=CCN1CC(=O)N2[C@@H](Cc3ccc(O)cc3)C(=O)N(Cc3cccc4sc(N5CCCCC5)nc34)C[C@@H]2N1C(=O)NCc1ccccc1 [Compound 218] | 1600 ± 1200 |
| C=CCN1CC(=O)N2[C@@H](Cc3ccc(O)cc3)C(=O)N(Cc3cccc4sc(N5CCOCC5)nc34)C[C@@H]2N1C(=O)NCc1ccccc1 [Compound 219] | 2200 ± 700 |
| C=CCc1nc2c(CN3C[C@H]4N(C(=O)CN(CC=C)N4C(=O)NCc4ccccc4)[C@@H](Cc4ccc(O)cc4)C3=O)cccc2s1 [Compound 220] | 1100 ± 300 |
| C=CCN1CC(=O)N2[C@@H](Cc3ccc(O)cc3)C(=O)N(Cc3cccc4sc(-c5ccccc5)nc34)C[C@@H]2N1C(=O)NCc1ccccc1 [Compound 221] | 4700 ± 3500 |
| C=CCN1CC(=O)N2[C@@H](Cc3ccc(O)cc3)C(=O)N(Cc3ccc(Cl)c4scnc34)C[C@@H]2N1C(=O)NCc1ccccc1 [Compound 222] | 3800 ± 2700 |
| C=CCN1CC(=O)N2[C@@H](Cc3ccc(O)cc3)C(=O)N(Cc3ccc(F)c4scnc34)C[C@@H]2N1C(=O)NCc1ccccc1 [Compound 223] | 600 ± 100 |
| C=CCN1CC(=O)N2[C@@H](Cc3ccc(O)cc3)C(=O)N(Cc3cccc4sc(C(=O)OCC)nc34)C[C@@H]2N1C(=O)NCc1ccccc1 [Compound 224] | 5400 ± 1000 |
| C=CCN1CC(=O)N2[C@@H](Cc3ccc(O)cc3)C(=O)N(Cc3cccc4sc(N)nc34)C[C@@H]2N1C(=O)NCc1ccccc1 [Compound 225] | 100 ± 100 |

Reference: patent publication US7671054B1, “Reverse-turn mimetics and method relating thereto” (Choongwae Pharma Corporation, priority 2001, dated 2010)
